Results from article PMC7933930, “Development of a small molecule that corrects misfolding and increases secretion of Z α1‐antitrypsin” (EMBO Molecular Medicine, 2021).
Read-outs that look alike come from different tables or passages of the source.

Assays:
Assay type in all cases: cell-based
Serotonin 5HT2C = target: T1, Serotonin 5HT2C (Homo sapiens, UniProt P28335); assay: Off‐target panel: Serotonin 5HT2C (DRX)
T1 sequence (P28335 33-458): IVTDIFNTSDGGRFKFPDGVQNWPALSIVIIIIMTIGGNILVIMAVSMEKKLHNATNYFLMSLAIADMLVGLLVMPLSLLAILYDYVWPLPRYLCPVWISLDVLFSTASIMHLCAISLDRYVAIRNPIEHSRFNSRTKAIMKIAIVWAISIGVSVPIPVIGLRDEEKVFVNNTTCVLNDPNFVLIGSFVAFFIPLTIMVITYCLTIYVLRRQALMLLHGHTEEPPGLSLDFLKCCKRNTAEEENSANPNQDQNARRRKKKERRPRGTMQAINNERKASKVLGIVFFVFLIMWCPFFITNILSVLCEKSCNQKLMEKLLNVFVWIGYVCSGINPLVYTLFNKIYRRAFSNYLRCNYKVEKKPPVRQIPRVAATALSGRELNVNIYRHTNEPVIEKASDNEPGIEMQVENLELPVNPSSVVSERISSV
Method: (§1) GSK716 selectivity and PK properties were profiled in order to investigate the suitability of GSK716 for progression into in vivo studies and the potential for taking it forward as a clinical candidate for testing in humans. Since GSK716 results in loss of inhibitory activity of α1‐antitrypsin, the effect of the compound was assessed on other closely related serpins. […] Furthermore, there were no off‐target effects in a panel of assays considered predictive of known safety liabilities that precluded further development of GSK716 (Table EV1).

Serotonin 5HT1B = Serotonin 5HT1B (Homo sapiens, UniProt P28222); assay: Off‐target panel: Serotonin 5HT1B (DRX)
Sequence of Serotonin 5HT1B (P28222 whole entry): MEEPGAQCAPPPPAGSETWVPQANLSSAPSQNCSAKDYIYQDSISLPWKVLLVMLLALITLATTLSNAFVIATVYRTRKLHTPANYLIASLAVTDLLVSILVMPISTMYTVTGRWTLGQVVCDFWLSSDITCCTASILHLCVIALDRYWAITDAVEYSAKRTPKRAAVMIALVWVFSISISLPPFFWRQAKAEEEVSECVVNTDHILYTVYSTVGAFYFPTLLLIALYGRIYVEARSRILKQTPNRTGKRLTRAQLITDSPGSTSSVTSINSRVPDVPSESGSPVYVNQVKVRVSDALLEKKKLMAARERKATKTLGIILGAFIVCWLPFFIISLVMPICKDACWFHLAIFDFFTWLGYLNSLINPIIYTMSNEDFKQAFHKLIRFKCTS
Method: as §1

[1] = tested on: Z α1‐antitrypsin secretion in iPSC‐derived human hepatocytes (ZZ genotype); assay: Secretion of Z α1‐antitrypsin from ZZ iPSC‐derived human hepatocytes; conditions: for EC50: Hepatocyte
Method: The ability of GSK716 to block Z α1‐antitrypsin polymerisation in the ER during folding was assessed by adding GSK716 to CHO‐TET‐ON‐Z‐A1AT cells (Ordóñez et al, 2013) with simultaneous induction of Z α1‐antitrypsin expression using doxycycline. […] Similar potency between the effects on secretion and polymerisation was observed throughout members of the lead series supporting the hypothesis that these effects are caused by the same pharmacological mode of action.
Figure 2 GSK716 inhibits polymerisation of Z α1‐antitrypsin in cell models of disease • A GSK716 was added to CHO‐TET‐ON‐Z‐A1AT cells (Ordóñez et al, 2013) with simultaneous induction of Z α1‐antitrypsin expression using doxycycline, and polymer load was quantified with the 2C1 monoclonal antibody that is specific to pathological polymers of α1‐antitrypsin (Miranda et al, 2010). […] Data were normalised to vehicle and a control compound from the GSK716 series at saturating concentration. […] It induced an approximately threefold increase in secreted levels of Z α1‐antitrypsin compared with vehicle control. […] For every time point, NP‐40‐soluble and NP‐40‐insoluble fractions were separated and immunoprecipitated with the 2C1 mAb and resolved by 4–12% w/v SDS–PAGE and α1‐antitrypsin detected by immunoblotting. […] Cell viability was measured by Cell Counting Kit‐8. […] Samples were resolved by 4–12% w/v acrylamide SDS–PAGE and detected by autoradiography. • H The graphs show the effect of GSK716 on intracellular and extracellular Z α1‐antitrypsin (mean ± SEM, n = 2).
The accumulation and clearance of Z α1‐antitrypsin polymer was measured with the 2C1 monoclonal antibody that is specific for polymerised antitrypsin in CHO‐TET‐ON‐Z‐α1AT cells (Ordóñez et al, 2013) and iPSC‐derived hepatocytes generated from a patient with a PiZZ genotype (Yusa et al, 2011). Secretion of Z α1‐antitrypsin was determined by TR‐FRET. Cell viability was analysed with Cell Counting Kit‐8 (Sigma) after treating the cells with 10 µM GSK716 or 0.1% v/v DMSO (vehicle) and an increasing concentration of tunicamycin (0.8–0.01 µg/ml).

Muscarinic M1 = target: T2, Muscarinic M1 (Homo sapiens, UniProt P11229); assay: Off‐target panel: Muscarinic M1 (DRX)
T2 sequence (P11229 1-460): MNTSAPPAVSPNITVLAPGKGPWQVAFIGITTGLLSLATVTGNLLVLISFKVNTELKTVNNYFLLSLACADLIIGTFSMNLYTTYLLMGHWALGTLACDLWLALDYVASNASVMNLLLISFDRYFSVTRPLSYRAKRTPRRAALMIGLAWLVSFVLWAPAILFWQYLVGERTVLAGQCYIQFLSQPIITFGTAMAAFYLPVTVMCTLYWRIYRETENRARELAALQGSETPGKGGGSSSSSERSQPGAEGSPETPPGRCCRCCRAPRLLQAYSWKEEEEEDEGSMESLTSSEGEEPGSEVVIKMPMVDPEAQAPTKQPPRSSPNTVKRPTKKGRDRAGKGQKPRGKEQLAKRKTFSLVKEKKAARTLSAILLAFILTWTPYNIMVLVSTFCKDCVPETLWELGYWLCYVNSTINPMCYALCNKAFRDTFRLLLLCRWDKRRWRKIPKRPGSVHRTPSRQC
Method: as §1

Dopamine D2 = Dopamine D2 (Homo sapiens, UniProt P14416); assay: Off‐target panel: Dopamine D2
Sequence of Dopamine D2 (P14416 whole entry): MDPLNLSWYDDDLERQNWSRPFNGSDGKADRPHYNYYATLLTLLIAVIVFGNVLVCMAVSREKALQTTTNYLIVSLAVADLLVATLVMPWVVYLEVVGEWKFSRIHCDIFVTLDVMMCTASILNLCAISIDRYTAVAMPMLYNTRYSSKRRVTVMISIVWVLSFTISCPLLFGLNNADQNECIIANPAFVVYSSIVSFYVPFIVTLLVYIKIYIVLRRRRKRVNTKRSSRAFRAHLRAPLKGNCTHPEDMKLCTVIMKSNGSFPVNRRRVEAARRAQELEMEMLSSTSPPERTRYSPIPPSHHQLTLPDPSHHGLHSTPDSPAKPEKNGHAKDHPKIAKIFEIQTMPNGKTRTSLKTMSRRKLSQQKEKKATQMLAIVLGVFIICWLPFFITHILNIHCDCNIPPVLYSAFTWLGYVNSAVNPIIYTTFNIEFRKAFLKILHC
Method: as §1

Q: How did the EC50 (Serotonin 5HT2C) turn out when `CCC[C@@H](NC(=O)c1cccc2c1CC(=O)N2)[C@@H](O)c1cccc(F)c1C` [GSK716] was run?
A: Its EC50 is greater than 100 µM.

Q: What about the IC50 (Serotonin 5HT2C) of the same compound?
A: Its IC50 is 50.1 µM.

Q: What about the EC50 (Serotonin 5HT1B) of the same compound?
A: The EC50 was greater than 100 µM.

Q: What about the IC50 (Serotonin 5HT1B) of the same compound?
A: Its IC50 is greater than 100 µM.

Q: What about the EC50 ([1]; ZZ iPSC‐derived human hepatocytes, n = 14, read-out: mean pEC50, secretion (converted)) of the same compound?
A: The EC50 was 0.316 µM.

Q: What about the EC50 ([1]; Homo sapiens, as quoted for the PK‐PD target concentration, cell system not stated there, read-out: cellular secretion assay EC50) of the same compound?
A: Its EC50 is 0.3 µM.

Q: What about the “increase in secreted levels of Z α1‐antitrypsin compared with vehicle control” value ([1]; ZZ iPSC‐derived human hepatocytes) of the same compound?
A: The value was “approximately threefold”.

Q: And the EC50 (Muscarinic M1)?
A: The EC50 was greater than 50.1 µM.

Q: What about the IC50 (Muscarinic M1) of the same compound?
A: The IC50 was greater than 50.1 µM.

Q: And the EC50 (Dopamine D2)?
A: Its EC50 is greater than 100 µM.

Q: And the IC50 (Dopamine D2)?
A: The IC50 was greater than 100 µM.
